Laboratory results taken from ChEMBL document CHEMBL6078692, “Discovery of PF-07265028, A Selective Small Molecule Inhibitor of Hematopoietic Progenitor Kinase 1 (HPK1) for the Treatment of Cancer” (J Med Chem, 2024).
In brackets after ≈: the same amount, converted by molar mass.

Legend:
Homo sapiens = organism: Homo sapiens; test: Selectivity ratio of Ki for N-terminal 6xHis-tagged human recombinant full-length LCK to Ki for full-length recombinant human HPK1 (1 to 182 residues) expressed in baculovirus infected Sf21 cells
[1] = Lipophilicity, logD of compound in octanol/water by shake flask method; format: physicochemical
[2] = target: Mitogen-activated protein kinase kinase kinase kinase 1 (Homo sapiens, UniProt Q92918); test: Inhibition of full-length recombinant human HPK1 (1 to 182 residues) extracted from baculovirus infected Sf21 cells using phospho-acceptor peptide as substrate incubated for 15 mins in presence of ATP by fluorescence based assay
Sequence of Mitogen-activated protein kinase kinase kinase kinase 1 (Q92918 whole entry, the tested form may be a part): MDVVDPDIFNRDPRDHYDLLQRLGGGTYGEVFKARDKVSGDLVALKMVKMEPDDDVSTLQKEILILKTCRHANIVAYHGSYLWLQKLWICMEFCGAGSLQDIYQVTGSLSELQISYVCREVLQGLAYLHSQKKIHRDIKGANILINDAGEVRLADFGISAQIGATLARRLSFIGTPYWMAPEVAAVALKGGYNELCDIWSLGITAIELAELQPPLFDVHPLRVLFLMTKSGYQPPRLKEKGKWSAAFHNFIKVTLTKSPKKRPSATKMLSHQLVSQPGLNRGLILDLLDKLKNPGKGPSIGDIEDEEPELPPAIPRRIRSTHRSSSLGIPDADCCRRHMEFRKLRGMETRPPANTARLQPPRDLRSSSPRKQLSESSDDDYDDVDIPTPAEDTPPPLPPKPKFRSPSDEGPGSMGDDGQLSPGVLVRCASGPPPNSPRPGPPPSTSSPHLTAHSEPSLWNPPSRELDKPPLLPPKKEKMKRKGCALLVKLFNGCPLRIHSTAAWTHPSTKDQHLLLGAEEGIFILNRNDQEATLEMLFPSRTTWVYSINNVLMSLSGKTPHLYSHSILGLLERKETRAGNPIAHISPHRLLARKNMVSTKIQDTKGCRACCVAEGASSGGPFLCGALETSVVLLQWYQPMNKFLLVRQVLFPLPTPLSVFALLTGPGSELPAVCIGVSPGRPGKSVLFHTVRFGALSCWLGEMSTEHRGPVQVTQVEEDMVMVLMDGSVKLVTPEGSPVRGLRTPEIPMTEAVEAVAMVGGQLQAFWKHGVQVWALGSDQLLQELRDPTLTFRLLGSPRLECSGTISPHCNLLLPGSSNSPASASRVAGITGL

[3] = Selectivity ratio of IC50 for cytotoxicity against PBMC (unknown origin) assessed as inhibition of ATP level incubated for 3 days by Cell Titer Glo assay to IC50 for inhibition of SLP76 phosphorylation at Ser376 in human Jurkat cells incubated for 30 mins by HTRF assay; format: toxicity, cell-based; conditions: read-out: Ratio IC50
[4] = Cytotoxicity against PBMC (unknown origin) assessed as inhibition of ATP level incubated for 3 days by Cell Titer Glo assay; format: toxicity, cell-based
[5] = Induction of IL-2 production in human T cells pretreated for 30 mins followed by anti-CD3/CD28 stimulation for 24 hrs by MSD analysis; format: functional, cell-based; conditions: T-cell
[6] = Kinetic solubility of compound at pH 7.4 incubated for 24 hrs by MS/MS analysis; format: physicochemical; conditions: buffer, read-out: Kinetic_solubility
[7] = Stability in human plasma assessed as half life measured for 120 mins by LC-MS/MS analysis; format: ADME, cell-free
[8] = Permeability in RRCK cells; format: ADME, cell-based, Canis lupus familiaris, MDCKII-LE; conditions: dog, MDCK; read-out: permeability
[9] = Intrinsic clearance in human hepatocytes measured per million cells at 1 uM measured for 240 mins by LC-MS/MS analysis; format: ADME, cell-based, Hepatocyte; conditions: read-out: CLH
[10] = Volume of distribution at steady state in monkey at 1 mg/kg, po or 0.5 mg/kg, iv; format: ADME, organism-based, Macaca mulatta; conditions: rhesus monkey, in vivo
[11] = Tmax in monkey at 1 mg/kg, po or 0.5 mg/kg, iv; format: ADME, organism-based, Macaca mulatta; conditions: rhesus monkey, in vivo
[12] = Unbound clearance in monkey at 1 mg/kg, po or 0.5 mg/kg, iv; format: ADME, organism-based, Macaca mulatta; conditions: rhesus monkey, in vivo
[13] = Volume of distribution at steady state in mouse at 15 mg/kg, po or 1 mg/kg, iv; format: ADME, organism-based; conditions: in vivo
[14] = Clearance in mouse at 15 mg/kg, po or 1 mg/kg, iv; format: ADME, organism-based; conditions: in vivo
[15] = Tmax in mouse at 15 mg/kg, po or 1 mg/kg, iv; format: ADME, organism-based; conditions: in vivo
[16] = Oral bioavailability in mouse at 15 mg/kg, po; format: ADME, organism-based; conditions: in vivo
[17] = Clearance in monkey at 1 mg/kg, po or 0.5 mg/kg, iv; format: ADME, organism-based, Macaca mulatta; conditions: rhesus monkey, in vivo
[18] = Unbound clearance in mouse at 15 mg/kg, po or 1 mg/kg, iv; format: ADME, organism-based; conditions: in vivo
[19] = Terminal half life in mouse at 15 mg/kg, po or 1 mg/kg, iv; format: ADME, organism-based; conditions: in vivo, read-out: beta t1/2 (converted)
[20] = Oral bioavailability in monkey at 1 mg/kg, po; format: ADME, organism-based, Macaca mulatta; conditions: rhesus monkey, in vivo
[21] = Terminal half life in monkey at 1 mg/kg, po or 0.5 mg/kg, iv; format: ADME, organism-based, Macaca mulatta; conditions: rhesus monkey, in vivo, read-out: beta t1/2 (converted)

Row | logD [1] | IC50 [2] | EC50 [5] | Papp [8] | hepatocyte CLint at 1 µM [9] | Compound | Ratio Ki (Homo sapiens) | selectivity ratio at 3 days [3] | IC50 at 3 days [4] | also measured
1 | 0.7 | 194 nM |  |  |  | CC(C)n1cnnc1-c1cccc(N2Cc3c(CN)cccc3C2=O)n1 | > 3 |  |  | solubility kinetic at 24 h [6]: > 600 µM; half-life [7]: > 6 h
2 | 1.7 | 2.2 nM |  |  |  | CCC(C)n1cnnc1-c1cccc(NC(=O)c2cccc3c2OCC(N)C3)n1 (stereo not drawn) | > 230 |  |  | half-life [7]: 3.38 h
3 | 1.6 | 0.3 nM |  | 20.4 ×10⁻⁶ cm/s | 11 µL/min/1e6 cells | CNCc1cc(OC)cc2c1CN(c1cccc(-c3nncn3[C@@H](C)CC(F)(F)F)n1)C2=O | 210 | 4 | 487 nM | solubility kinetic at 24 h [6]: 202 µM (≈ 93 µg/mL)
4 | 1.6 | 0.07 nM | 64 nM |  |  | CNCc1nc(N(C)C(C)C)cc2c1CN(c1cccc(-c3nnc4n3[C@@H](CF)CC4)n1)C2=O |  | 25 | 1300 nM | 
5 | 1.7 | 10 nM |  |  |  | CC(C)n1cnnc1-c1cccc(NC(=O)c2cccc3c2nc(CN)n3C)n1 | > 45 |  |  | 
6 | 0.7 | 2.5 nM |  | 2.9 ×10⁻⁶ cm/s | < 2.3 µL/min/1e6 cells | COc1ccc2c(c1CN)CN(c1cccc(-c3nncn3[C@@H](C)CC(F)(F)F)n1)C2=O | > 140 |  |  | solubility kinetic at 24 h [6]: 372 µM (≈ 166 µg/mL)
7 | 2 | < 0.13 nM | 74 nM | 19.3 ×10⁻⁶ cm/s | 15 µL/min/1e6 cells | CCCn1cnnc1-c1cccc(N2Cc3c(cc(N(C)C(C)C)nc3CNC)C2=O)n1 |  | 24 | 2100 nM | 
8 | 2.5 |  | 59 nM | 8.3 ×10⁻⁶ cm/s | 56 µL/min/1e6 cells | CC[C@@H](N)c1nc(N2CCC[C@H]2C)cc2c1CN(c1cccc(-c3nnc4n3[C@@H](C)CC4)n1)C2=O |  |  | 800 nM | solubility kinetic at 24 h [6]: 260 µM (≈ 123 µg/mL); Vdss [10]: 3.7 L/kg; Tmax [11]: 1 h; CL free [12]: 143 mL/min/kg; Vdss [13]: 4.9 L/kg; clearance [14]: 39 mL/min/kg; Tmax [15]: 2 h; bioavailability [16]: 38%; clearance [17]: 14 mL/min/kg; CL free [18]: 690 mL/min/kg; half-life [19]: 3.3 h; bioavailability [20]: 20%; half-life [21]: 4.3 h
9 | 2.1 | < 0.06 nM | 38 nM | 15.1 ×10⁻⁶ cm/s | 23 µL/min/1e6 cells | CCCn1cnnc1-c1cccc(N2Cc3c(cc(N4CCC[C@H]4C)nc3CNC)C2=O)n1 |  | 32 | 1100 nM | 

Continued, compound first:

Row | Compound | logD [1] | IC50 [2] | EC50 [5] | Papp [8] | hepatocyte CLint at 1 µM [9] | Ratio Ki (Homo sapiens) | selectivity ratio at 3 days [3] | IC50 at 3 days [4] | also measured
10 | CC(C)n1cnnc1-c1cccc(NC(=O)c2cccc3c2OCC(N)C3)n1 (stereo not drawn) | 1.2 | 7.7 nM |  |  |  | > 65 |  |  | 
11 | CC[C@H]1CCc2nnc(-c3cccc(N4Cc5c(cc(N(C)C(C)C)nc5CNC)C4=O)n3)n21 | 2.2 | < 0.06 nM | 116 nM |  |  |  | 13 | 500 nM | 
12 | CC(C)n1cnnc1-c1cccc(N2Cc3c(CO)cccc3C2=O)n1 | 2.1 | 22 nM |  |  |  | > 13 |  |  | solubility kinetic at 24 h [6]: < 0.1 µM
13 | C[C@@H]1CCCN1c1cc2c(c([C@@H](C)N)n1)CN(c1cccc(-c3nnc4n3[C@@H](C)CC4)n1)C2=O | 2.3 | < 0.05 nM | 62 nM |  |  |  | 21 | 1100 nM | 
14 | CNCc1nc(N(C)C)cc2c1CN(c1cccc(-c3nncn3C(C)C)n1)C2=O | 0.8 | 0.15 nM |  |  |  | 1600 |  |  | 
15 | CC[C@H](C)n1cnnc1-c1cccc(NC(=O)c2cccc3c2nc(CN)n3C)n1 | 2 | 2.7 nM |  |  |  | 37 |  |  | half-life [7]: 2.1 h
16 | CCCn1c(C)nnc1-c1cccc(N2Cc3c(cc(N(C)C(C)C)nc3CNC)C2=O)n1 | 2 | < 0.17 nM | 154 nM |  |  |  | > 41 | > 3300 nM | 
17 | CNCc1nc(N(C)C)cc2c1CN(c1cccc(-c3nncn3[C@@H](C)CC(F)(F)F)n1)C2=O | 1.3 | < 0.05 nM |  |  |  | > 260 |  |  | 
18 | CC[C@@H](N)c1nc(N2CCC[C@H]2C)cc2c1CN(c1cccc(-c3nncn3CC)n1)C2=O | 2.3 | < 0.09 nM | 142 nM |  |  |  | 42 | 2200 nM | 
19 | CNCc1nc(N(C)C(C)C)cc2c1CN(c1cccc(-c3nnc4n3[C@@H](C)CC4)n1)C2=O | 1.9 | < 0.05 nM | 47 nM |  |  |  | 11 | 500 nM | 
20 | CNCc1cc(OC)cc2c1CN(c1cccc(-c3nncn3C(C)C)n1)C2=O | 1.1 | 1.1 nM |  | 27 ×10⁻⁶ cm/s | 10 µL/min/1e6 cells | > 470 | 5 | 1700 nM | solubility kinetic at 24 h [6]: 495 µM (≈ 194 µg/mL)
21 | CCCn1cnnc1-c1cccc(N2Cc3c(cc(N(C)C)nc3CNC)C2=O)n1 | 1 | 0.27 nM | 97 nM | 17.7 ×10⁻⁶ cm/s | 5.2 µL/min/1e6 cells |  | 29 | 3500 nM | 
22 | COc1ccc(CC#N)cc1C(=O)Nc1cccc(-c2nncn2C(C)C)n1 | 2.3 | 14 nM |  |  |  | 6 |  |  | 
